Measured values taken from US10167262B2, “Herbicidal substituted 3-arylpyrazoles” (FMC CORPORATION, priority 2014, dated 2019).

How the values were obtained:
Format in all cases: in vivo
[1] = tested on: barnyardgrass (Echinochloa crus-galli); test: Test A pre-/postemergence greenhouse herbicide test, visual injury rating 0-100
Procedure, shortened: (§1)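 Pre + post at same time; soil = loam/sand. Post stage 1–2 leaf, 2–10 cm. Formulation: non-phytotoxic solvent mix w/ surfactant. Greenhouse ~10 d, visual rating vs untreated, 0 (no effect)–100 (complete control).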

[2] = tested on: corn (Zea mays); test: as above
Procedure, shortened: as §1

[3] = tested on: giant foxtail (Setaria faberii); test: as above
Procedure, shortened: as §1

[4] = tested on: large (Lg) crabgrass (Digitaria sanguinalis); test: as above
Procedure, shortened: as §1

[5] = tested on: morningglory (Ipomoea spp.); test: as above
Procedure, shortened: as §1

[6] = tested on: pigweed (Amaranthus retroflexus); test: as above
Procedure, shortened: as §1

[7] = tested on: velvetleaf (Abutilon theophrasti); test: as above
Procedure, shortened: as §1

[8] = tested on: wheat (Triticum aestivum); test: as above
Procedure, shortened: as §1

[9] = tested on: Italian ryegrass (Lolium multiflorum); test: Test C pre-/postemergence greenhouse test, plant response rating 0-100; details: Postemergence
Excerpt: (§2) Seeds of plant species selected from blackgrass (Alopecurus myosuroides), Italian ryegrass (Lolium multiflorum), winter wheat (Triticum aestivum), galium (catchweed bedstraw, Galium aparine), corn (Zea mays), large (Lg) crabgrass (Digitaria sanguinalis), giant foxtail (Setaria faberii), johnsongrass (Sorghum halepense), lambsquarters (Chenopodium album), morningglory (Ipomoea coccinea), yellow nutsedge (Cyperus esculentus), pigweed (Amaranthus retroflexus), ragweed (common ragweed, Ambrosia elatior), soybean (Glycine max), barnyardgrass (Echinochloa crus-galli), oilseed rape (Brassica napus), waterhemp (common waterhemp, Amaranthus rudis), and velvetleaf (Abutilon theophrasti) were planted into a blend of loam soil and sand and treated preemergence with test chemicals formulated in a non-phytotoxic solvent mixture which included a surfactant.
(§3) At the same time, plants selected from these crop and weed species and also winter barley (Hordeum vulgare), bermudagrass (Cynodon dactylon), downy bromegrass (Bromus tectorum), canarygrass (Phalaris minor), cocklebur (common cocklebur, Xanthium strumarium), woolly cupgrass (Eriochloa villosa), deadnettle (henbit deadnettle, Lamium amplexicaule), green foxtail (Setaria viridis), goosegrass (Eleusine indica), surinam grass (Brachiaria decumbens), windgrass (Apera spica-venti), chickweed (common chickweed, Stellaria media), kochia (Kochia scoparia), and wild oat (Avena fatua), were planted in pots containing Redi-Earth® planting medium (Scotts Company, 14111 Scottslawn Road, Marysville, Ohio 43041) comprising spaghnum peat moss, vermiculite, wetting agent and starter nutrients and treated with postemergence applications of test chemicals formulated in the same manner. Plants ranged in height from 2 to 18 cm (1- to 4-leaf stage) for postemergence treatments. Treated plants and controls were maintained in a greenhouse for 13 to 15 days, after which time all species were compared to controls and visually evaluated. Plant response ratings, summarized in Table C, are based on a scale of 0 to 100 where 0 is no effect and 100 is complete control. A dash (-) response means no test result.

[10] = tested on: giant foxtail (Setaria faberii); test: as above; details: Postemergence
Excerpt: as §2, §3

[11] = tested on: soybean (Glycine max); test: as above; details: Postemergence
Excerpt: as §2, §3

[12] = tested on: chickweed (common chickweed, Stellaria media); test: Test C postemergence greenhouse test, plant response rating 0-100
Excerpt: as §3

[13] = tested on: kochia (Kochia scoparia); test: as above
Excerpt: as §3

[14] = tested on: wild oat (Avena fatua); test: as above
Excerpt: as §3

In the case of O=C(c1ccccc1)c1cn(S(=O)(=O)CCl)nc1-c1cc(Cl)cc(Cl)c1 [Compound 1], the “Plant response rating (0 to 100 scale), Barnyardgrass” value ([1]; Postemergence, 125 g ai/ha) is reported as 0, the “Plant response rating (0 to 100 scale), Barnyardgrass” value ([1]; Postemergence, 500 g ai/ha) is reported as 0 and the “Barnyardgrass plant response rating (0 = no effect, 100 = complete control)” value ([1]; Preemergence, 125 g ai/ha) is reported as 0. For the same molecule, the “Plant response rating (0 to 100 scale), Barnyardgrass” value ([1]; Preemergence, 500 g ai/ha) was 0, the “Plant response rating (0 to 100 scale), Corn” value ([2]; Postemergence, 125 g ai/ha) was 0 and the “Plant response rating (0 to 100 scale), Corn” value ([2]; Postemergence, 500 g ai/ha) was 0. For the same molecule, the “Corn plant response rating (0 = no effect, 100 = complete control)” value ([2]; Preemergence, 125 g ai/ha) was 0, the “Plant response rating (0 to 100 scale), Corn” value ([2]; Preemergence, 500 g ai/ha) was 0 and the “Plant response rating (0 to 100 scale), Foxtail, Giant” value ([3]; Postemergence, 125 g ai/ha) was 0. The “Plant response rating (0 to 100 scale), Foxtail, Giant” value ([3]; Postemergence, 500 g ai/ha) was 0, the “Foxtail, Giant plant response rating (0 = no effect, 100 = complete control)” value ([3]; Preemergence, 125 g ai/ha) was 0 and the “Plant response rating (0 to 100 scale), Foxtail, Giant” value ([3]; Preemergence, 500 g ai/ha) was 0. For the same molecule, the “Plant response rating (0 to 100 scale), Crabgrass, Large” value ([4]; Postemergence, 125 g ai/ha) was 0, the “Plant response rating (0 to 100 scale), Crabgrass, Large” value ([4]; Postemergence, 500 g ai/ha) was 0 and the “Crabgrass, Large plant response rating (0 = no effect, 100 = complete control)” value ([4]; Preemergence, 125 g ai/ha) was 0. The “Plant response rating (0 to 100 scale), Crabgrass, Large” value ([4]; Preemergence, 500 g ai/ha) was 0, the “Plant response rating (0 to 100 scale), Morningglory” value ([5]; Postemergence, 125 g ai/ha) was 0 and the “Plant response rating (0 to 100 scale), Morningglory” value ([5]; Postemergence, 500 g ai/ha) was 0. For the same molecule, the “Morningglory plant response rating (0 = no effect, 100 = complete control)” value ([5]; Preemergence, 125 g ai/ha) was 0, the “Plant response rating (0 to 100 scale), Morningglory” value ([5]; Preemergence, 500 g ai/ha) was 0 and the “Plant response rating (0 to 100 scale), Pigweed” value ([6]; Postemergence, 125 g ai/ha) was 80. For the same molecule, the “Plant response rating (0 to 100 scale), Pigweed” value ([6]; Postemergence, 500 g ai/ha) was 90, the “Pigweed plant response rating (0 = no effect, 100 = complete control)” value ([6]; Preemergence, 125 g ai/ha) was 40 and the “Plant response rating (0 to 100 scale), Pigweed” value ([6]; Preemergence, 500 g ai/ha) was 80. For the same molecule, the “Plant response rating (0 to 100 scale), Velvetleaf” value ([7]; Postemergence, 125 g ai/ha) was 90, the “Plant response rating (0 to 100 scale), Velvetleaf” value ([7]; Postemergence, 500 g ai/ha) was 90 and the “Velvetleaf plant response rating (0 = no effect, 100 = complete control)” value ([7]; Preemergence, 125 g ai/ha) was 20. The “Plant response rating (0 to 100 scale), Velvetleaf” value ([7]; Preemergence, 500 g ai/ha) was 20, the “Plant response rating (0 to 100 scale), Wheat” value ([8]; Postemergence, 125 g ai/ha) was 0 and the “Plant response rating (0 to 100 scale), Wheat” value ([8]; Postemergence, 500 g ai/ha) was 0. For the same molecule, the “Wheat plant response rating (0 = no effect, 100 = complete control)” value ([8]; Preemergence, 125 g ai/ha) was 0, the “Plant response rating (0 to 100 scale), Wheat” value ([8]; Preemergence, 500 g ai/ha) was 0 and the “Plant response rating (0 to 100), Ryegrass, Italian” value ([9]; 62 g ai/ha) was 0. The “Plant response rating (0 to 100), Ryegrass, Italian” value ([9]; 125 g ai/ha) was 0, the “Plant response rating, Ryegrass, Italian” value ([9]; 250 g ai/ha, scale 0 to 100) was 0 and the “Plant response rating (0 to 100), Foxtail, Giant” value ([10]; 31 g ai/ha) was 0. For the same molecule, the “Plant response rating (0 to 100), Foxtail, Giant” value ([10]; 62 g ai/ha) was 0, the “Plant response rating (0 to 100), Foxtail, Giant” value ([10]; 125 g ai/ha) was 0 and the “Plant response rating, Foxtail, Giant” value ([10]; 250 g ai/ha, scale 0 to 100) was 0. The “Plant response rating (0 to 100), Soybean” value ([11]; 62 g ai/ha) was 0, the “Plant response rating (0 to 100), Soybean” value ([11]; 125 g ai/ha) was 0 and the “Plant response rating, Soybean” value ([11]; 250 g ai/ha, scale 0 to 100) was 0. For the same molecule, the “Plant response rating (0 to 100), Chickweed” value ([12]; 31 g ai/ha) was 90, the “Plant response rating (0 to 100), Chickweed” value ([12]; 62 g ai/ha) was 100 and the “Plant response rating (0 to 100), Chickweed” value ([12]; 125 g ai/ha) was 100. The “Plant response rating, Chickweed” value ([12]; 250 g ai/ha, scale 0 to 100) was 100, the “Plant response rating (0 to 100), Kochia” value ([13]; 62 g ai/ha) was 80 and the “Plant response rating (0 to 100), Kochia” value ([13]; 125 g ai/ha) was 85. The “Plant response rating, Kochia” value ([13]; 250 g ai/ha, scale 0 to 100) was 90, the “Plant response rating (0 to 100), Oat, Wild” value ([14]; 62 g ai/ha) was 0 and the “Plant response rating (0 to 100), Oat, Wild” value ([14]; 125 g ai/ha) was 0. For the same molecule, the “Plant response rating, Oat, Wild” value ([14]; 250 g ai/ha, scale 0 to 100) was 0.
